# Data published in ChEMBL document CHEMBL5724914, “Linking interpersonal differences in gut microbiota composition and drug biotransformation activity” (2024).
# Conditions: human gut metagenome, 24 h, 2 µM
# Further: call rule not given here.
row,Structure (SMILES),Bacterial Biotransformation
1,OCCN(CCO)c1nc(N2CCCCC2)c2nc(N(CCO)CCO)nc(N3CCCCC3)c2n1 [DIPYRIDAMOLE],Compound NOT metabolized
2,COc1cc2nc(N3CCN(C(=O)C4COc5ccccc5O4)CC3)nc(N)c2cc1OC.CS(=O)(=O)O (stereo not given) [DOXAZOSIN MESYLATE],Compound NOT metabolized

# Assay: (§1) The drug is tested on Z-030 corresponding to mouse gut metagenome with ENA study accession number: PRJEB37062 and ENA sample accession number: ERS12561829 for biotransformation under anaerobic condition. The drug concentrations were measured over 9 timepoints collected between 0 and 24 hours of incubation by liquid-chromatography-coupled mass spectrometry (LC–MS)
# Conditions: 2 µM
row,Structure (SMILES),Bacterial Biotransformation
1,OCCN(CCO)c1nc(N2CCCCC2)c2nc(N(CCO)CCO)nc(N3CCCCC3)c2n1 [DIPYRIDAMOLE],Compound NOT metabolized
2,COc1cc2nc(N3CCN(C(=O)C4COc5ccccc5O4)CC3)nc(N)c2cc1OC.CS(=O)(=O)O (stereo not given) [DOXAZOSIN MESYLATE],Compound NOT metabolized

# Assay: as §1, with “Z-008” for “Z-030”, “to” for “to mouse gut”, “ERS12561808” for “ERS12561829”
# Conditions: 2 µM
row,Structure (SMILES),Bacterial Biotransformation
1,OCCN(CCO)c1nc(N2CCCCC2)c2nc(N(CCO)CCO)nc(N3CCCCC3)c2n1 [DIPYRIDAMOLE],Compound NOT metabolized
2,COc1cc2nc(N3CCN(C(=O)C4COc5ccccc5O4)CC3)nc(N)c2cc1OC.CS(=O)(=O)O (stereo not given) [DOXAZOSIN MESYLATE],Compound NOT metabolized

# Assay: as §1, with “WLS-220” for “Z-030”, “human” for “mouse”, “ERS12561769” for “ERS12561829”
# Conditions: 2 µM
row,Structure (SMILES),Bacterial Biotransformation
1,OCCN(CCO)c1nc(N2CCCCC2)c2nc(N(CCO)CCO)nc(N3CCCCC3)c2n1 [DIPYRIDAMOLE],Compound metabolized
2,COc1cc2nc(N3CCN(C(=O)C4COc5ccccc5O4)CC3)nc(N)c2cc1OC.CS(=O)(=O)O (stereo not given) [DOXAZOSIN MESYLATE],Compound metabolized

# Conditions: human gut metagenome, 24 h, 2 µM
# Remark: another data set of the same source
row,Structure (SMILES),Bacterial Biotransformation
1,OCCN(CCO)c1nc(N2CCCCC2)c2nc(N(CCO)CCO)nc(N3CCCCC3)c2n1 [DIPYRIDAMOLE],Compound metabolized
2,COc1cc2nc(N3CCN(C(=O)C4COc5ccccc5O4)CC3)nc(N)c2cc1OC.CS(=O)(=O)O (stereo not given) [DOXAZOSIN MESYLATE],Compound metabolized

# Assay: as §1, with “WLS-310” for “Z-030”, “human” for “mouse”, “ERS12561785” for “ERS12561829”
# Conditions: 2 µM
row,Structure (SMILES),Bacterial Biotransformation
1,OCCN(CCO)c1nc(N2CCCCC2)c2nc(N(CCO)CCO)nc(N3CCCCC3)c2n1 [DIPYRIDAMOLE],Compound metabolized
2,COc1cc2nc(N3CCN(C(=O)C4COc5ccccc5O4)CC3)nc(N)c2cc1OC.CS(=O)(=O)O (stereo not given) [DOXAZOSIN MESYLATE],Compound metabolized

# Conditions: human gut metagenome, 24 h, 2 µM
# Remark: another data set of the same source
row,Structure (SMILES),Bacterial Biotransformation
1,OCCN(CCO)c1nc(N2CCCCC2)c2nc(N(CCO)CCO)nc(N3CCCCC3)c2n1 [DIPYRIDAMOLE],Compound metabolized
2,COc1cc2nc(N3CCN(C(=O)C4COc5ccccc5O4)CC3)nc(N)c2cc1OC.CS(=O)(=O)O (stereo not given) [DOXAZOSIN MESYLATE],Compound metabolized

# Conditions: human gut metagenome, 24 h, 2 µM
# Remark: another data set of the same source
row,Structure (SMILES),Bacterial Biotransformation
1,OCCN(CCO)c1nc(N2CCCCC2)c2nc(N(CCO)CCO)nc(N3CCCCC3)c2n1 [DIPYRIDAMOLE],Compound metabolized
2,COc1cc2nc(N3CCN(C(=O)C4COc5ccccc5O4)CC3)nc(N)c2cc1OC.CS(=O)(=O)O (stereo not given) [DOXAZOSIN MESYLATE],Compound metabolized

# Conditions: human gut metagenome, 24 h, 2 µM
# Remark: another data set of the same source
row,Structure (SMILES),Bacterial Biotransformation
1,OCCN(CCO)c1nc(N2CCCCC2)c2nc(N(CCO)CCO)nc(N3CCCCC3)c2n1 [DIPYRIDAMOLE],Compound metabolized
2,COc1cc2nc(N3CCN(C(=O)C4COc5ccccc5O4)CC3)nc(N)c2cc1OC.CS(=O)(=O)O (stereo not given) [DOXAZOSIN MESYLATE],Compound metabolized

# Assay: as §1, with “Z-020” for “Z-030”, “rabbit” for “mouse”, “ERS12561819” for “ERS12561829”
# Conditions: 2 µM
row,Structure (SMILES),Bacterial Biotransformation
1,OCCN(CCO)c1nc(N2CCCCC2)c2nc(N(CCO)CCO)nc(N3CCCCC3)c2n1 [DIPYRIDAMOLE],Compound NOT metabolized
2,COc1cc2nc(N3CCN(C(=O)C4COc5ccccc5O4)CC3)nc(N)c2cc1OC.CS(=O)(=O)O (stereo not given) [DOXAZOSIN MESYLATE],Compound NOT metabolized

# Conditions: human gut metagenome, 24 h, 2 µM
# Remark: another data set of the same source
row,Structure (SMILES),Bacterial Biotransformation
1,OCCN(CCO)c1nc(N2CCCCC2)c2nc(N(CCO)CCO)nc(N3CCCCC3)c2n1 [DIPYRIDAMOLE],Compound metabolized
2,COc1cc2nc(N3CCN(C(=O)C4COc5ccccc5O4)CC3)nc(N)c2cc1OC.CS(=O)(=O)O (stereo not given) [DOXAZOSIN MESYLATE],Compound metabolized

# Conditions: human gut metagenome, 24 h, 2 µM
# Remark: another data set of the same source
row,Structure (SMILES),Bacterial Biotransformation
1,OCCN(CCO)c1nc(N2CCCCC2)c2nc(N(CCO)CCO)nc(N3CCCCC3)c2n1 [DIPYRIDAMOLE],Compound metabolized
2,COc1cc2nc(N3CCN(C(=O)C4COc5ccccc5O4)CC3)nc(N)c2cc1OC.CS(=O)(=O)O (stereo not given) [DOXAZOSIN MESYLATE],Compound metabolized

# Conditions: human gut metagenome, 24 h, 2 µM
# Remark: another data set of the same source
row,Structure (SMILES),Bacterial Biotransformation
1,OCCN(CCO)c1nc(N2CCCCC2)c2nc(N(CCO)CCO)nc(N3CCCCC3)c2n1 [DIPYRIDAMOLE],Compound metabolized
2,COc1cc2nc(N3CCN(C(=O)C4COc5ccccc5O4)CC3)nc(N)c2cc1OC.CS(=O)(=O)O (stereo not given) [DOXAZOSIN MESYLATE],Compound metabolized

# Conditions: human gut metagenome, 24 h, 2 µM
# Remark: another data set of the same source
row,Structure (SMILES),Bacterial Biotransformation
1,OCCN(CCO)c1nc(N2CCCCC2)c2nc(N(CCO)CCO)nc(N3CCCCC3)c2n1 [DIPYRIDAMOLE],Compound metabolized
2,COc1cc2nc(N3CCN(C(=O)C4COc5ccccc5O4)CC3)nc(N)c2cc1OC.CS(=O)(=O)O (stereo not given) [DOXAZOSIN MESYLATE],Compound metabolized

# Conditions: human gut metagenome, 24 h, 2 µM
# Remark: another data set of the same source
row,Structure (SMILES),Bacterial Biotransformation
1,OCCN(CCO)c1nc(N2CCCCC2)c2nc(N(CCO)CCO)nc(N3CCCCC3)c2n1 [DIPYRIDAMOLE],Compound metabolized
2,COc1cc2nc(N3CCN(C(=O)C4COc5ccccc5O4)CC3)nc(N)c2cc1OC.CS(=O)(=O)O (stereo not given) [DOXAZOSIN MESYLATE],Compound metabolized

# Assay: as §1, with “WLS-077” for “Z-030”, “human” for “mouse”, “ERS12561750” for “ERS12561829”
# Conditions: 2 µM
row,Structure (SMILES),Bacterial Biotransformation
1,OCCN(CCO)c1nc(N2CCCCC2)c2nc(N(CCO)CCO)nc(N3CCCCC3)c2n1 [DIPYRIDAMOLE],Compound metabolized
2,COc1cc2nc(N3CCN(C(=O)C4COc5ccccc5O4)CC3)nc(N)c2cc1OC.CS(=O)(=O)O (stereo not given) [DOXAZOSIN MESYLATE],Compound metabolized

# Assay: as §1, with “Z-003” for “Z-030”, “pig” for “mouse”, “ERS12561803” for “ERS12561829”
# Conditions: 2 µM
row,Structure (SMILES),Bacterial Biotransformation
1,OCCN(CCO)c1nc(N2CCCCC2)c2nc(N(CCO)CCO)nc(N3CCCCC3)c2n1 [DIPYRIDAMOLE],Compound metabolized
2,COc1cc2nc(N3CCN(C(=O)C4COc5ccccc5O4)CC3)nc(N)c2cc1OC.CS(=O)(=O)O (stereo not given) [DOXAZOSIN MESYLATE],Compound NOT metabolized

# Assay: as §1, with “WLS-007” for “Z-030”, “human” for “mouse”, “ERS12561742” for “ERS12561829”
# Conditions: 2 µM
row,Structure (SMILES),Bacterial Biotransformation
1,OCCN(CCO)c1nc(N2CCCCC2)c2nc(N(CCO)CCO)nc(N3CCCCC3)c2n1 [DIPYRIDAMOLE],Compound metabolized
2,COc1cc2nc(N3CCN(C(=O)C4COc5ccccc5O4)CC3)nc(N)c2cc1OC.CS(=O)(=O)O (stereo not given) [DOXAZOSIN MESYLATE],Compound metabolized

# Assay: as §1, with “Z-026” for “Z-030”, “to” for “to mouse gut”, “ERS12561825” for “ERS12561829”
# Conditions: 2 µM
row,Structure (SMILES),Bacterial Biotransformation
1,OCCN(CCO)c1nc(N2CCCCC2)c2nc(N(CCO)CCO)nc(N3CCCCC3)c2n1 [DIPYRIDAMOLE],Compound metabolized
2,COc1cc2nc(N3CCN(C(=O)C4COc5ccccc5O4)CC3)nc(N)c2cc1OC.CS(=O)(=O)O (stereo not given) [DOXAZOSIN MESYLATE],Compound metabolized

# Conditions: human gut metagenome, 24 h, 2 µM
# Remark: another data set of the same source
row,Structure (SMILES),Bacterial Biotransformation
1,OCCN(CCO)c1nc(N2CCCCC2)c2nc(N(CCO)CCO)nc(N3CCCCC3)c2n1 [DIPYRIDAMOLE],Compound metabolized
2,COc1cc2nc(N3CCN(C(=O)C4COc5ccccc5O4)CC3)nc(N)c2cc1OC.CS(=O)(=O)O (stereo not given) [DOXAZOSIN MESYLATE],Compound metabolized
